Reference: patent publication US20160095843A1, “PYRAZOLOPYRROLIDINE DERIVATIVES AND THEIR USE IN THE TREATMENT OF DISEASE” (NOVARTIS AG, priority 2013, published 2016)

How the values were obtained:
THP-1 cells = experiment: Cell growth inhibition assay (CellTiter-Glo), THP-1; type: cell-based; conditions: Homo sapiens
Procedure, shortened: (§1)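 Leukemia lines grown in their own media were exposed for 4 days at 37° C. to 3-fold serial dilutions from 10 μM (0.1% DMSO). Viability by CellTiter-Glo ATP luminescence, corrected for background and day-0 plate; IC50 and TGI from four-parameter fit against vehicle (100%) and medium (−100%).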

K-562 cells = experiment: Cell growth inhibition assay (CellTiter-Glo), K-562; type: cell-based, human; conditions: for GI50: Homo sapiens, K562
Procedure, shortened: as §1

MV-4-11 cells = experiment: Cell growth inhibition assay (CellTiter-Glo), MV-4-11; type: cell-based; conditions: Homo sapiens, MV4-11
Procedure, shortened: as §1

GI50 (THP-1 cells)	GI50 (K-562 cells)	GI50 (MV-4-11 cells)	Compound	IC (TGI) (K-562 cells)
23.5 nM	128 nM	16.4 nM	CCc1nn(CCOC)c2c1C(c1ccc(Cl)cc1)N(c1cc(C)c3nnc(C)n3c1)C2=O (stereo not shown) [Example 87, 4-(4-chlorophenyl)-5-(3,8-dimethyl-[1,2,4]triazolo[4,3-a]pyridin-6-yl)-3-ethyl-1-(2-methoxyethyl)-4,5-dihydropyrrolo-[3,4-c]pyrazol-6(1H)-one]	–
40.6 nM	442 nM	46.5 nM	CCc1nn(-c2ccnn2C)c2c1C(c1ccc(Cl)cc1)N(c1cc(C)c(=O)n(C)c1)C2=O (stereo not shown) [Example 89, 4-(4-chlorophenyl)-5-(1,5-dimethyl-6-oxo-1,6-dihydropyridin-3-yl)-3-ethyl-1-(1-methyl-1H-pyrazol-5-yl)-4,5-dihydropyrrolo-[3,4-c]pyrazol-6(1H)-one]	–
51 nM	276 nM	25.5 nM	Cc1nn(-c2ccnn2C)c2c1C(c1ccc(Cl)cc1)N(c1cc(C)c3nnc(C)n3c1)C2=O (stereo not shown) [Example 90, 4-(4-chlorophenyl)-5-(3,8-dimethyl-[1,2,4]triazolo[4,3-a]pyridin-6-yl)-3-methyl-1-(1-methyl-1H-pyrazol-5-yl)-4,5-dihydropyrrolo[3,4-c]pyrazol-6(1H)-one]	–
908 nM	2680 nM	633 nM	Cc1nn(C2CC2)c2c1C(c1cccc(OC(F)(F)F)c1)N(c1cc(C)c(=O)n(C)c1)C2=O (stereo not shown) [Example 91, 1-cyclopropyl-5-(1,5-dimethyl-6-oxo-1,6-dihydropyridin-3-yl)-3-methyl-4-(3-(trifluoromethoxy)phenyl)-4,5-dihydropyrrolo-[3,4-c]pyrazol-6(1H)-one]	–
19.2 nM	65 nM	10.9 nM	Cc1nn(C2CC2)c2c1C(c1ccc(Cl)cc1)N(c1cc(C)c3nnc(C)n3c1)C2=O (stereo not shown) [Example 92, 4-(4-chlorophenyl)-1-cyclopropyl-5-(3,8-dimethyl-[1,2,4]triazolo[4,3-a]pyridin-6-yl)-3-methyl-4,5-dihydropyrrolo-[3,4-c]pyrazol-6(1H)-one]	–
26.4 nM	80 nM	13.5 nM	Cc1cc(N2C(=O)c3nn(C4CC4)c(C)c3C2c2ccc(Cl)cc2)cn2c(C)nnc12 (stereo not shown) [Example 93, 4-(4-chlorophenyl)-2-cyclopropyl-5-(3,8-dimethyl-[1,2,4]triazolo[4,3-a]pyridin-6-yl)-3-methyl-4,5-dihydropyrrolo[3,4-c]pyrazol-6(2H)-one]	–
34.4 nM	96.9 nM	19.5 nM	Cc1nn(C2CCC2)c2c1C(c1ccc(Cl)cc1)N(c1cc(C)c(=O)n(C)c1)C2=O (stereo not shown) [Example 94, 4-(4-chlorophenyl)-1-cyclobutyl-5-(1,5-dimethyl-6-oxo-1,6-dihydropyridin-3-yl)-3-methyl-4,5-dihydropyrrolo-[3,4-c]pyrazol-6(1H)-one]	–
245 nM	868 nM	140 nM	Cc1nn(C2CC2)c2c1C(c1ccc(OC(F)(F)F)cc1)N(c1cc(C)c(=O)n(C)c1)C2=O (stereo not shown) [Example 95, 1-cyclopropyl-5-(1,5-dimethyl-6-oxo-1,6-dihydropyridin-3-yl)-3-methyl-4-(4-(trifluoromethoxy)phenyl)-4,5-dihydropyrrolo-[3,4-c]pyrazol-6(1H)-one]	–
1260 nM	5900 nM	894 nM	Cc1nn(C2CC2)c2c1C(c1cccc(C(F)(F)F)c1)N(c1cc(C)c(=O)n(C)c1)C2=O (stereo not shown) [Example 96, 1-cyclopropyl-5-(1,5-dimethyl-6-oxo-1,6-dihydropyridin-3-yl)-3-methyl-4-(3-(trifluoromethyl)phenyl)-4,5-dihydropyrrolo[3,4-c]pyrazol-6(1H)-one]	–
164 nM	684 nM	68 nM	Cc1nn(C2CC2)c2c1C(c1ccc(C(F)(F)F)cc1)N(c1cc(C)c(=O)n(C)c1)C2=O (stereo not shown) [Example 97, 1-cyclopropyl-5-(1,5-dimethyl-6-oxo-1,6-dihydropyridin-3-yl)-3-methyl-4-(4-(trifluoromethyl)phenyl)-4,5-dihydropyrrolo-[3,4-c]pyrazol-6(1H)-one]	–
2840 nM	> 10000 nM	2000 nM	COc1ncc(-n2nc(C)c3c2C(=O)N(c2cc(C)c(=O)n(C)c2)[C@H]3c2ccc(Cl)cc2)c(OC)n1 [Example 99, (S)-4-(4-chlorophenyl)-1-(2,4-dimethoxypyrimidin-5-yl)-5-(1,5-dimethyl-6-oxo-1,6-dihydropyridin-3-yl)-3-methyl-4,5-dihydropyrrolo-[3,4-c]pyrazol-6(1H)-one]	>10000 nM
88 nM	264 nM	40.5 nM	COc1ncc(-n2nc(C)c3c2C(=O)N(c2cc(C)c(=O)n(C)c2)[C@@H]3c2ccc(Cl)cc2)c(OC)n1 [Example 100, (R)-4-(4-chlorophenyl)-1-(2,4-dimethoxypyrimidin-5-yl)-5-(1,5-dimethyl-6-oxo-1,6-dihydropyridin-3-yl)-3-methyl-4,5-dihydropyrrolo[3,4-c]pyrazol-6(1H)-one]	–
53 nM	261 nM	25.7 nM	COc1ncccc1-n1nc(C)c2c1C(=O)N(c1cc(C)c3nnc(C)n3c1)C2c1ccc(Cl)cc1 (stereo not shown) [Example 101, 4-(4-chlorophenyl)-5-(3,8-dimethyl-[1,2,4]triazolo[4,3-a]pyridin-6-yl)-1-(2-methoxypyridin-3-yl)-3-methyl-4,5-dihydropyrrolo[3,4-c]pyrazol-6(1H)-one]	–
140 nM	653 nM	87.5 nM	Cc1nn(C2CC2)c2c1C(c1ccc(Cl)cc1)N(c1ccc3nnn(C)c3n1)C2=O (stereo not shown) [Example 102, 4-(4-chlorophenyl)-1-cyclopropyl-3-methyl-5-(3-methyl-3H-[1,2,3]triazolo[4,5-b]-pyridin-5-yl)-4,5-dihydropyrrolo-[3,4-c]pyrazol-6(1H)-one]	–
7290 nM	> 10000 nM	3590 nM	Cc1nn(C(C)C)c2c1[C@H](c1ccc(Cl)cc1)N(c1cc(C)c(=O)n(C)c1)C2=O [Example 103, (S)-4-(4-chlorophenyl)-5-(1,5-dimethyl-6-oxo-1,6-dihydropyridin-3-yl)-1-isopropyl-3-methyl-4,5-dihydropyrrolo-[3,4-c]pyrazol-6(1H)-one]	–
26.2 nM	57.6 nM	9.97 nM	Cc1nn(C(C)C)c2c1[C@@H](c1ccc(Cl)cc1)N(c1cc(C)c(=O)n(C)c1)C2=O [Example 104, (R)-4-(4-chlorophenyl)-5-(1,5-dimethyl-6-oxo-1,6-dihydropyridin-3-yl)-1-isopropyl-3-methyl-4,5-dihydropyrrolo[3,4-c]pyrazol-6(1H)-one]	>10000 nM
188 nM	729 nM	102 nM	CCc1nn(C)c2c1C(c1ccc(Cl)cc1)N(c1cc(OC)c3nnc(C)n3c1)C2=O (stereo not shown) [Example 105, 4-(4-chlorophenyl)-3-ethyl-5-(8-methoxy-3-methyl-[1,2,4]triazolo[4,3-a]pyridin-6-yl)-1-methyl-4,5-dihydropyrrolo-[3,4-c]pyrazol-6(1H)-one]	–
2110 nM	4060 nM	649 nM	CCc1nn(C2CC2)c2c1[C@H](c1ccc(Cl)cc1)N(c1cc(C)c3nnc(C)n3c1)C2=O [Example 106, (S)-4-(4-chlorophenyl)-1-cyclopropyl-5-(3,8-dimethyl-[1,2,4]triazolo[4,3-a]pyridin-6-yl)-3-ethyl-4,5-dihydropyrrolo-[3,4-c]pyrazol-6(1H)-one]	>10000 nM
8.18 nM	37.9 nM	7.28 nM	CCc1nn(C2CC2)c2c1[C@@H](c1ccc(Cl)cc1)N(c1cc(C)c3nnc(C)n3c1)C2=O [Example 107, (R)-4-(4-chlorophenyl)-1-cyclopropyl-5-(3,8-dimethyl-[1,2,4]triazolo[4,3-a]pyridin-6-yl)-3-ethyl-4,5-dihydropyrrolo-[3,4-c]pyrazol-6(1H)-one]	>10000 nM
397 nM	1510 nM	267 nM	CCc1nn(CCOCC(F)(F)F)c2c1C(c1ccc(Cl)cc1)N(c1cc(OC)c3nnc(C)n3c1)C2=O (stereo not shown) [Example 108, 4-(4-chlorophenyl)-3-ethyl-5-(8-methoxy-3-methyl-[1,2,4]triazolo[4,3-a]pyridin-6-yl)-1-(2-(2,2,2-trifluoroethoxy)ethyl)-4,5-dihydropyrrolo[3,4-c]pyrazol-6(1H)-one]	–
39.8 nM	269 nM	18.6 nM	COc1ncccc1-n1nc(C)c2c1C(=O)N(c1cc(C)c3nnn(C)c3n1)C2c1ccc(Cl)cc1 (stereo not shown) [Example 109, 4-(4-chlorophenyl)-5-(3,7-dimethyl-3H-[1,2,3]triazolo[4,5-b]pyridin-5-yl)-1-(2-methoxypyridin-3-yl)-3-methyl-4,5-dihydropyrrolo-[3,4-c]pyrazol-6(1H)-one]	–
10.6 nM	50.3 nM	5.25 nM	Cc1nn(C2CC2)c2c1C(c1ccc(Cl)cc1)N(c1cc(C)c3nnn(C)c3n1)C2=O (stereo not shown) [Example 110, 4-(4-chlorophenyl)-1-cyclopropyl-5-(3,7-dimethyl-3H-[1,2,3]triazolo[4,5-b]pyridin-5-yl)-3-methyl-4,5-dihydropyrrolo-[3,4-c]pyrazol-6(1H)-one]	–
22 nM	177 nM	16.2 nM	COc1ncccc1-n1nc(C)c2c1C(=O)N(c1cc(C)c3nnc(C)n3n1)C2c1ccc(Cl)cc1 (stereo not shown) [Example 111, 4-(4-chlorophenyl)-5-(3,8-dimethyl-[1,2,4]triazolo[4,3-b]pyridazin-6-yl)-1-(2-methoxypyridin-3-yl)-3-methyl-4,5-dihydropyrrolo-[3,4-c]pyrazol-6(1H)-one]	–
1280 nM	2810 nM	758 nM	Cc1nn(C2CC2)c2c1C(c1ccc(Cl)cc1)N(c1cc(N(C)C(=O)OC(C)(C)C)c3nnc(C)n3n1)C2=O (stereo not shown) [Example 112, tert-butyl (6-(4-(4-chlorophenyl)-1-cyclopropyl-3-methyl-6-oxopyrrolo[3,4-c]pyrazol-5(1H,4H,6H)-yl)-3-methyl-[1,2,4]triazolo[4,3-b]pyridazin-8-yl)(methyl)carbamate]	–
